# According to PMC10269819, “Mitochondrial ADP/ATP Carrier 1 Is Important for the Growth of Toxoplasma Tachyzoites” (Microbiology Spectrum, 2023):
# Assays:
# Assay type in all cases: cell-based
# [1] = target: T1, TgAAC1 (Toxoplasma gondii, UniProt Q9BJ36); assay: competition with [α-32P]ATP uptake by intact induced E. coli cells; conditions: unlabelled competitor 2.5 μM (100-fold excess); 25 nM [α-32P]ATP; 10 min; 50 mM potassium phosphate pH 7.0; 30 °C
# T1 construct: full-length cDNA (318 residues) in pET-16b, HA-tagged; expressed in membrane of intact E. coli BL21(DE3)
# T1 sequence (Q9BJ36 1-318): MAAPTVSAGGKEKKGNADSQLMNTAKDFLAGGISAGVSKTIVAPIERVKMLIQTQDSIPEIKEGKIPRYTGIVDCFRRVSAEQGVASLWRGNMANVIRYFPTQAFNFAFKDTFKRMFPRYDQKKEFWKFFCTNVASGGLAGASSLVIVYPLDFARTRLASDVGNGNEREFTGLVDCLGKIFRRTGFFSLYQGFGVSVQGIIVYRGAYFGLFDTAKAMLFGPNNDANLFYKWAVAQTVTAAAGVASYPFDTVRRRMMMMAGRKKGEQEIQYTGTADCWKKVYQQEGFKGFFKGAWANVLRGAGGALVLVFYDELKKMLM
# [2] = target: T1, TgAAC1; assay: uptake of [α-32P]ATP by intact induced E. coli cells; conditions: labelled compound; 25 nM [α-32P]ATP; 50 mM potassium phosphate pH 7.0; 30 °C; uninduced cells as control
# [3] = target: T1, TgAAC1; assay: competition with [α-32P]ATP uptake by intact induced E. coli cells; conditions: unlabelled competitor 2.5 μM (100-fold excess); 25 nM [α-32P]ATP; 10 min; 50 mM potassium phosphate pH 7.0; 30 °C; remark: listed apart in the source
SMILES,% reduction of [α-32P]-ATP transport at 2.5 μM [1],uptake of [α-32P]ATP by intact induced E. coli cells [2],% reduction of [α-32P]-ATP uptake at 2.5 μM [3]
Nc1ncnc2c1ncn2[C@@H]1O[C@H](COP(=O)(O)OP(=O)(O)O)[C@@H](O)[C@H]1O [ADP],~ approximately 90%,–,–
Nc1ncnc2c1ncn2[C@@H]1O[C@H](COP(=O)(O)OP(=O)(O)OP(=O)(O)O)[C@@H](O)[C@H]1O [ATP],~ approximately 90%,TgAAC1 could take up more ATP after induction compared to the noninduced group,–
Nc1ncnc2c1ncn2[C@@H]1O[C@H](COP(=O)(O)O)[C@@H](O)[C@H]1O [AMP],–,–,40%
Nc1ccn([C@@H]2O[C@H](COP(=O)(O)OP(=O)(O)OP(=O)(O)O)[C@@H](O)[C@H]2O)c(=O)n1 [CTP],–,–,45%
